Measurements: ChEMBL document CHEMBL1201862, “PubChem BioAssay data set” (2004)
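A five-concentration, 48-hour dose response in 96-well plates underlies each endpoint, interpolated linearly between surrounding concentrations. GI50 marks 50% less growth.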 Active and inactive are the calls of the source. Rule as the data show it: active = GI50 up to about 1.1 µM and inactive = higher.

Columns and labels:
Test in all cases: NCI-60 cell line screen, 48 h
[1] = tested on: 786-0
[2] = tested on: A549
[3] = tested on: CCRF-CEM
[4] = tested on: EKVX
[5] = tested on: HCC 2998
[6] = tested on: HOP-62
[7] = tested on: LOX IMVI
[8] = tested on: M14
[9] = tested on: MOLT-4
[10] = tested on: Malme-3M
[11] = tested on: NCI-H226
[12] = tested on: NCI-H23
[13] = tested on: OVCAR-3
[14] = tested on: PC-3
[15] = tested on: RXF 393
[16] = tested on: SF-539
[17] = tested on: SK-MEL-5
[18] = tested on: SNB-75
[19] = tested on: T47D
[20] = tested on: UACC-257

Measured: GI50

COC1CC(OC2CCC3(C)C(=CCC4C3C(OC(C)=O)C(OC(=O)CC(C)C)C3(C)C(C(C)=O)CCC43O)C2)OC(C)C1OC1CC(OC)C(OC2CC(OC)C(OC3OC(C)C(O)C(OC)C3O)C(C)O2)C(C)O1 (stereo not drawn)
inactive: [1] 24.9 µM | [2] 37.2 µM | [3] 22.6 µM | [4] 34.8 µM | [5] 24.4 µM | [6] > 100 µM | [7] 20.2 µM | [8] 38.7 µM | [9] 23.8 µM | [10] 43 µM | [11] 30.5 µM | [12] 34 µM | [13] 43.9 µM | [14] 18.5 µM | [15] 20.1 µM | [16] 21.9 µM | [17] 18.7 µM | [18] 24.4 µM | [19] 38.2 µM | [20] 28.8 µM

Cn1c2ccccc2c2c3c(c4c5ccccc5n(C5OC(CO)C(O)C(O)C5O)c4c21)C(=O)OC3=O (stereo not drawn)
inactive: [1] > 100 µM | [2] > 100 µM | [3] > 100 µM | [4] > 100 µM | [5] > 100 µM | [6] > 100 µM | [7] > 100 µM | [8] > 100 µM | [9] > 100 µM | [10] > 100 µM | [11] > 100 µM | [12] > 100 µM | [13] > 100 µM | [14] > 100 µM | [15] > 100 µM | [16] > 100 µM | [17] > 100 µM | [18] 87.3 µM | [19] 52.2 µM | [20] > 100 µM

Nc1nc(Cl)c(/N=N/c2ccc(Cl)cc2)c(NCC2(CO)CCC(CCc3ccccc3)C2)n1 (stereo not drawn)
inactive: [1] 6.32 µM | [2] 14.1 µM | [3] 1.21 µM | [4] 8.79 µM | [5] 5.97 µM | [6] 13.7 µM | [7] 1.79 µM | [8] 8.81 µM | [9] 1.29 µM | [10] 14.8 µM | [11] 1.91 µM | [12] 1.26 µM | [13] 11 µM | [14] 12.2 µM | [15] 7.8 µM | [16] 14.2 µM | [17] 1.37 µM | [18] 13.6 µM | [19] 3.94 µM | [20] 10.6 µM

CCCCC1(N=[N+]=[N-])C(=O)C2C=CC=C3c4ccccc4N(C1=O)C32 (stereo not drawn)
inactive: [1] 22 µM | [2] 19.5 µM | [3] 18.5 µM | [4] 17.8 µM | [5] 15.6 µM | [6] 27.1 µM | [7] 17.9 µM | [8] 19.3 µM | [9] 15.3 µM | [10] 23 µM | [11] 21.3 µM | [12] 14.4 µM | [13] 21.6 µM | [14] 18.9 µM | [15] 13.7 µM | [16] 20 µM | [17] 16.4 µM | [18] 11.6 µM | [19] 14.1 µM | [20] 18.4 µM

Cc1cc2cc3c(Cl)c(CCCl)c(C)nc3cc2c(Cl)c1CCCl
inactive: [1] 24.5 µM | [2] 17.8 µM | [3] 23.4 µM | [4] 2.87 µM | [5] 17.5 µM | [6] 13.8 µM | [7] 15.2 µM | [9] 16 µM | [10] 20.8 µM | [11] 3.73 µM | [12] 21.8 µM | [13] 13.5 µM | [14] 14.4 µM | [15] 4.33 µM | [16] 12.1 µM | [17] 12.6 µM | [18] 17 µM | [19] 15.8 µM | [20] 18 µM

COc1ccc2oc(=O)c(-c3nc4ccccc4s3)cc2c1
inactive: [1] 7.82 µM | [2] 19.9 µM | [3] > 38.5 µM | [4] 19.2 µM | [5] > 100 µM | [6] 14.2 µM | [7] 17.8 µM | [8] 22.7 µM | [9] > 77.6 µM | [10] 8.61 µM | [11] 19.2 µM | [12] 27.5 µM | [13] 14.2 µM | [14] 63.8 µM | [15] 12.2 µM | [16] 3.92 µM | [17] 33.5 µM | [18] 8.65 µM | [19] 20.6 µM | [20] > 85.1 µM

CC(C#N)N(CCc1ccccc1)C(=O)c1ccccc1 (stereo not drawn)
inactive: [1] > 100 µM | [2] > 100 µM | [3] > 100 µM | [4] > 100 µM | [5] > 100 µM | [6] > 100 µM | [7] > 100 µM | [8] > 100 µM | [9] 47.6 µM | [10] > 100 µM | [11] > 100 µM | [12] > 100 µM | [13] > 100 µM | [14] > 100 µM | [15] > 100 µM | [16] > 100 µM | [17] > 100 µM | [18] 27.4 µM | [19] 39.2 µM | [20] > 100 µM

CCCCC1=CC1(C#N)[N+](=O)[O-] (stereo not drawn)
inactive: [1] 72.4 µM | [2] > 100 µM | [3] 18.1 µM | [4] > 100 µM | [5] > 100 µM | [6] > 100 µM | [7] 31.3 µM | [8] 30.8 µM | [9] 23.3 µM | [10] 53.6 µM | [11] > 100 µM | [12] > 100 µM | [13] > 100 µM | [14] > 100 µM | [15] > 100 µM | [16] > 100 µM | [17] 36.5 µM | [18] 39.9 µM | [19] > 100 µM | [20] > 100 µM

CCCSc1cc(Cl)c(C)cc1S(=O)(=O)n1ccnc1O
inactive: [1] > 100 µM | [2] > 100 µM | [3] > 100 µM | [4] > 100 µM | [5] > 100 µM | [6] > 100 µM | [7] > 100 µM | [8] > 100 µM | [9] > 100 µM | [10] > 100 µM | [11] > 100 µM | [12] > 100 µM | [13] > 100 µM | [14] > 100 µM | [15] > 100 µM | [16] > 100 µM | [17] > 100 µM | [18] 20.1 µM | [19] > 100 µM | [20] > 100 µM

NC(=S)N/N=C1/CCCC2CCCC[C@@H]12 (stereo partly drawn)
inactive: [1] > 100 µM | [2] > 100 µM | [3] > 100 µM | [4] 35 µM | [5] > 100 µM | [6] > 100 µM | [7] > 100 µM | [8] > 100 µM | [9] > 100 µM | [10] > 100 µM | [11] > 100 µM | [12] > 100 µM | [13] > 100 µM | [14] > 100 µM | [15] > 100 µM | [16] > 100 µM | [17] 97.3 µM | [18] > 100 µM | [19] 37.4 µM | [20] > 100 µM

CC(=O)NC1C(OCc2ccccc2)OC(CO)C(O)C1OCC(=O)N[C@@H](C)C(=O)N[C@H](CCC(=O)NCCCNc1ccc([N+](=O)[O-])c2[nH]c3ccccc3c(=O)c12)C(N)=O (stereo partly drawn)
inactive: [1] 34.2 µM | [2] > 100 µM | [3] > 100 µM | [4] 43 µM | [5] 49.3 µM | [6] 65 µM | [7] 52.6 µM | [8] > 100 µM | [10] 27.5 µM | [11] 25.5 µM | [12] > 100 µM | [13] > 100 µM | [14] > 100 µM | [15] 63.5 µM | [16] 53.2 µM | [17] 57.9 µM | [18] 46.6 µM | [19] > 100 µM | [20] 54 µM

COc1cc(O)c2c(=O)cc(C3(OC(C)=O)C=CC(OC4OC(CO)C(O)C(O)C4O)C=C3)oc2c1 (stereo not drawn)
inactive: [1] > 100 µM | [2] > 100 µM | [3] > 100 µM | [4] > 100 µM | [5] > 100 µM | [6] > 100 µM | [7] > 100 µM | [8] > 100 µM | [9] > 100 µM | [10] > 100 µM | [11] > 100 µM | [12] > 100 µM | [13] > 100 µM | [14] > 100 µM | [15] > 100 µM | [16] > 100 µM | [17] > 100 µM | [18] > 100 µM | [19] > 100 µM | [20] > 100 µM

CCCCC(C(=O)NCCNC(=O)CCC(=O)N(C)O)C(=O)NCCNC(=O)CCC(=O)N(C)O
inactive: [1] > 100 µM | [2] > 100 µM | [3] > 100 µM | [4] > 100 µM | [5] > 100 µM | [6] > 100 µM | [7] > 100 µM | [8] > 100 µM | [9] > 100 µM | [10] > 100 µM | [11] > 100 µM | [12] > 100 µM | [13] > 100 µM | [14] > 100 µM | [15] > 100 µM | [16] > 100 µM | [17] > 100 µM | [18] > 100 µM | [19] > 100 µM | [20] > 100 µM

NC(=S)N/N=C\CC(O)(C(F)(F)F)C(F)(F)F
inactive: [1] > 10 µM | [2] > 10 µM | [3] > 10 µM | [4] > 10 µM | [5] > 10 µM | [6] > 10 µM | [7] > 10 µM | [8] > 10 µM | [9] > 10 µM | [10] > 10 µM | [11] > 10 µM | [12] > 10 µM | [13] > 10 µM | [14] > 10 µM | [15] > 10 µM | [16] > 10 µM | [17] > 10 µM | [18] > 10 µM | [19] > 10 µM | [20] > 10 µM
